According to US10961238B2, “Modulators of hedgehog (Hh) signaling pathway” (E-THERAPEUTICS PLC, priority 2016, dated 2021):

system: C3H10T1/2 cells; test: C3H assay: differentiation of C3H10T1/2 cells by mSHH, measurement of alkaline phosphatase; assay type: cell-based, mouse; conditions: C3H10T1/2 cells stimulated with mSHH for 72 hours; alkaline phosphatase activity; read-out: IC50 Ranges

Compound	IC50 [nM]
CC(C)(C)OC(=O)N1CCC(S(=O)(=O)N2CC=C(c3n[nH]c4ncccc34)CC2)CC1 [Compound 229, tert-butyl 4-[[4-(1H-pyrazolo[3,4-b]pyridin-3-yl)-3,6-dihydro-2H-pyridin-1-yl]sulfonyl] piperidine-1-carboxylate]	1000 to 10000

same assay, conditions: Mus musculus, C3H 10T1/2; C3H10T1/2 cells stimulated with mSHH for 72 hours; alkaline phosphatase activity; read-out: IC50 Ranges

IC50 [nM]	Compound
10 to 100	O=C(OC1CCOCC1)N1CC(S(=O)(=O)N2CCC(c3c[nH]c4ncccc34)CC2)C1 [Compound 218, oxan-4-yl 3-[4-(1H-pyrrolo[2,3-b]pyridin-3-yl)piperidin-1-yl]sulfonylaze-tidine-1-carboxylate]
10 to 100	COc1ccc(OC(=O)N2CC(S(=O)(=O)N3CCC(c4c[nH]c5ncccc45)CC3)C2)cc1 [Compound 219, (4-methoxyphenyl) 3-[4-(1H-pyrrolo[2,3-b]pyridin-3-yl)piperidin-1-yl]sulfonylaze-tidine-1-carboxylate]
10 to 100	O=C(OC1COCOC1)N1CC(S(=O)(=O)N2CCC(c3c[nH]c4ncccc34)CC2)C1 [Compound 220, 1,3-dioxan-5-yl 3-[4-(1H-pyrrolo[2,3-b]pyridin-3-yl)piperidin-1-yl]sulfonylaze-tidine-1-carboxylate]
100 to 1000	CC(C)(C)OC(=O)N1CC(S(=O)(=O)N2CCC(c3c[nH]c4nccc(F)c34)CC2)C1 [Compound 221, tert-butyl 3-[4-(4-fluoro-1H-pyrrolo[2,3-b]pyridin-3-yl)piperidin-1-yl]sulfonylaze-tidine-1-carboxylate]
100 to 1000	O=C(OC1COC1)N1CC(S(=O)(=O)N2CCC(c3c[nH]c4ncccc34)CC2)C1 [Compound 222, oxetan-3-yl 3-[4-(1H-pyrrolo[2,3-b]pyridin-3-yl)piperidin-1-yl]sulfonylaze-tidine-1-carboxylate]
1000 to 10000	Cc1[nH]c2ncccc2c1C1CCN(S(=O)(=O)C2CN(C(=O)OC(C)(C)C)C2)CC1 [Compound 224]
1000 to 10000	CC(C)(C)OC(=O)N1CC(S(=O)(=O)N2CCN(c3nsc4ccccc34)CC2)C1 [Compound 225, tert-butyl 3-[4-(1,H-benzothiazol-3-yl)piperazin-1-yl]sulfonylaze-tidine-1-carboxylate]
1000 to 10000	CC(C)(C)OC(=O)N1CC(S(=O)(=O)N2CCN(c3c[nH]c4ncccc34)CC2)C1 [Compound 226, tert-Butyl 3-[4-(1H-pyrrolo[2,3-b]pyridin-3-yl)piperazin-1-yl]sulfonylazetidine-1-carboxylate]
1000 to 10000	COc1ccc(N2CCN(S(=O)(=O)C3CCN(C(=O)OC(C)(C)C)CC3)CC2)cc1 [Compound 227, tert-butyl 4-[4-(4-methoxyphenyl)piperazin-1-yl]sulfonylpiper-idine-1-carboxylate]
100 to 1000	CC(C)(C)OC(=O)N1CCC(S(=O)(=O)N2CC=C(c3csc4cccnc34)CC2)CC1 [Compound 230, tert-butyl 4-[(4-thieno[3,2-b]pyridin-3-yl-3,6-dihydro-2H-pyridin-1-yl)sulfonyl]pip eridine-1-carboxylate]
100 to 1000	CC(C)(C)OC(=O)N1CC(S(=O)(=O)N2CC=C(c3coc4cccnc34)CC2)C1 [Compound 231, tert-butyl 3-[(4-furo[3,2-b]pyridin-3-yl-3,6-dihydro-2H-pyridin-1-yl)sulfonyl]aze tidine-1-carboxylate]
100 to 1000	CC(C)(C)OC(=O)N1CCC(S(=O)(=O)N2CC=C(c3coc4cccnc34)CC2)CC1 [Compound 232, tert-butyl 4-[(4-furo[3,2-b]pyridin-3-yl-3,6-dihydro-2H-pyridin-1-yl)sulfonyl]pip eridine-1-carboxylate]
1000 to 10000	CC(C)(C)OC(=O)N1CCC(S(=O)(=O)N2CC=C(c3c[nH]c4ncncc34)CC2)CC1 [Compound 233, tert-butyl 4-[[4-(7H-pyrrolo[2,3-d]pyrimidin-5-yl)-3,6-dihydro-2H-pyridin-1-yl]sulfonyl] piperidine-1-carboxylate]
100 to 1000	CC(C)(C)OC(=O)N1CC(S(=O)(=O)N2CC=C(c3cnc4occc4c3)CC2)C1 [Compound 234, tert-butyl 3-[(4-furo[2,3-b]pyridin-5-yl-3,6-dihydro-2H-pyridin-1-yl)sulfonyl]aze tidine-1-carboxylate]
100 to 1000	Cc1ccc(S(=O)(=O)n2cc(C3=CCN(S(=O)(=O)C4CCN(C(=O)OC(C)(C)C)CC4)CC3)c3cncnc32)cc1 [Compound 235, tert-butyl 4-[[4-[7-(4-methylphenyl)sulfonylpyrrolo[2,3-d]pyrimidin-5-yl]-3,6-dihydro-2H-pyridin-1-yl]sulfonyl] piperidine-1-carboxylate]
1000 to 10000	CC(C)(C)OC(=O)N1CCC(S(=O)(=O)N2CC=C(c3ccnc4[nH]ccc34)CC2)CC1 [Compound 236, tert-butyl 4-[[4-(1H-pyrrolo[2,3-b]pyridin-4-yl)-3,6-dihydro-2H-pyridin-1-yl]sulfonyl] piperidine-1-carboxylate]
100 to 1000	Cc1ccc(S(=O)(=O)n2ccc3c(C4=CCN(S(=O)(=O)C5CCN(C(=O)OC(C)(C)C)CC5)CC4)ccnc32)cc1 [Compound 237, tert-butyl 4-[[4-[1-(4-methylphenyl)sulfonylpyrrolo [2,3-b]pyridin-dihydro-2H-pyridin-1-yl]sulfonyl]piperidine-1-carboxylate]
1000 to 10000	CC(C)(C)OC(=O)N1CCC(S(=O)(=O)N2CC=C(c3ncnc4[nH]ccc34)CC2)CC1 [Compound 238, tert-butyl 4-[[4-(7H-pyrrolo[2,3-d]pyrimidin-4-yl)-3,6-dihydro-2H-pyridin-1-yl]sulfonyl] piperidine-l-carboxylate]
1000 to 10000	Cc1cc(C#N)ccc1N1CCN(S(=O)(=O)C2CN(C(=O)OC(C)(C)C)C2)CC1 [Compound 240, tert-butyl 3-[4-(4-cyano-2-methylphenyl)piperazin-1-yl]sulfonylaze-tidine-1-carboxylate]
100 to 1000	COC(=O)c1csc(N2CC(S(=O)(=O)N3CCC(c4c[nH]c5ncccc45)CC3)C2)n1 [Compound 241, methyl 2-[3-[4-(1H-pyrrolo[2,3-b]pyridin-3-yl)piperidin-1-yl]sulfonylaze-tidin-1-yl]-1,3-thiazole-4-carboxylate]
10 to 100	N#Cc1ccnc(N2CC(S(=O)(=O)N3CCC(c4c[nH]c5ncccc45)CC3)C2)c1 [Compound 242, 2-[3-[4-(1H-pyrrolo[2,3-b]pyridin-3-yl)piperidin-1-yl]sulfonylaze-tidin-1-yl] pyridine-4-carbonitrile]
10 to 100	CCOc1cccc(N2CC(S(=O)(=O)N3CCC(c4c[nH]c5ncccc45)CC3)C2)n1 [Compound 243, 3-[1-[1-(6-ethoxypyridin-2-yl)azetidin-3-yl]sulfonylpiper-idin-4-yl]-1H-pyrrolo[2,3-b]pyridine]
100 to 1000	COC(=O)c1cnc(N2CC(S(=O)(=O)N3CCC(c4c[nH]c5ncccc45)CC3)C2)s1 [Compound 245, methyl 2-[3-[4-(1H-pyrrolo[2,3-b]pyridin-3-yl)piperidin-1-yl]sulfonylaze-tidin-1-yl]-1,3-thiazole-5-carboxylate]
100 to 1000	COC(=O)c1coc(N2CC(S(=O)(=O)N3CCC(c4c[nH]c5ncccc45)CC3)C2)n1 [Compound 246, methyl 2-[3-[4-(1H-pyrrolo[2,3-b]pyridin-3-yl)piperidin-1-yl]sulfonylaze-tidin-1-yl]-1,3-oxazole-4-carboxylate]
